Values after ≈ are worked out from the molar mass of the structure shown.
Key:
[1] = molecular target: 5'-AMP-activated protein kinase subunit beta-1 (Homo sapiens, UniProt Q9Y478); experiment: Inhibition of AMPKB1
[2] = Volume of distribution at steady state in Sprague-Dawley rat at 2 mg/kg, iv; type: ADME, organism-based; set-up: dose 2 mg/kg, route intravenous; details: in vivo, read-out: Vdss
Cytochrome P450 1A2 = Cytochrome P450 1A2 (Homo sapiens, UniProt P05177); experiment: Inhibition of CYP1A2 in human liver microsomes; type: ADME, Microsome
[3] = molecular target: Serine/threonine-protein kinase PAK 3 (Homo sapiens, UniProt O75914); experiment: Inhibition of PAK3
[4] = molecular target: Ribosomal protein S6 kinase alpha-3 (Homo sapiens, UniProt P51812); experiment: Inhibition of RPS6KA3
Sequence of Ribosomal protein S6 kinase alpha-3 (P51812 whole entry): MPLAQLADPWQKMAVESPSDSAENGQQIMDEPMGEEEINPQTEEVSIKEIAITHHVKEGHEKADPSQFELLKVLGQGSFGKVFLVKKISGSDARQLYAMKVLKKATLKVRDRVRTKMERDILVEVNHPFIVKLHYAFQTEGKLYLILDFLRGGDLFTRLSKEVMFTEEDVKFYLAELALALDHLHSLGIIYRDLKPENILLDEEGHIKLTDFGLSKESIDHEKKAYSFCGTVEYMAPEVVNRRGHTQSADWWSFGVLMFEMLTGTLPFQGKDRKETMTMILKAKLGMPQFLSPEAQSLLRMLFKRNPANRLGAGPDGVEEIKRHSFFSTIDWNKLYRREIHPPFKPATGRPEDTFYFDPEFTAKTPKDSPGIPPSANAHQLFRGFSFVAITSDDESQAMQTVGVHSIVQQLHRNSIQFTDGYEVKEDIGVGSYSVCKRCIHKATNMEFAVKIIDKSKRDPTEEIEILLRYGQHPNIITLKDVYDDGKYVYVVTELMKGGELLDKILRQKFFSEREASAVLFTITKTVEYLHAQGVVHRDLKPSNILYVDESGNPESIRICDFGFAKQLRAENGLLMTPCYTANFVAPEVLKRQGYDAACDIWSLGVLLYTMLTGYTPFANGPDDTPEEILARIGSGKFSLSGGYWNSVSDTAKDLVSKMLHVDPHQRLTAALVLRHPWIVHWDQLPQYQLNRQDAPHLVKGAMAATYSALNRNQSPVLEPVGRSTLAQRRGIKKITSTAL

[5] = molecular target: Calcium/calmodulin-dependent protein kinase type 1D (Homo sapiens, UniProt Q8IU85); experiment: Inhibition of CAMK1D
[6] = molecular target: Serine/threonine-protein kinase pim-2 (Homo sapiens, UniProt Q9P1W9); experiment: Inhibition of PIM2
Cytochrome P450 2C9 = Cytochrome P450 2C9 (Homo sapiens, UniProt P11712); experiment: Inhibition of CYP2C9 in human liver microsomes; type: ADME, Microsome
[7] = molecular target: cAMP-dependent protein kinase catalytic subunit alpha (Homo sapiens, UniProt P17612); experiment: Inhibition of PRKACA
[8] = Initial plasma concentration in Sprague-Dawley rat at 2 mg/kg, iv; type: ADME, organism-based; set-up: dose 2 mg/kg, route intravenous
[9] = molecular target: RAC-alpha serine/threonine-protein kinase (Homo sapiens, UniProt P31749); experiment: Inhibition of AKT1
[10] = Half life in Sprague-Dawley rat at 10 mg/kg, po; type: ADME, organism-based; set-up: dose 10 mg/kg, route oral; details: in vivo
Ketohexokinase = molecular target: T1, Ketohexokinase (Homo sapiens, UniProt P50053); experiment: Inhibition of ketokinase isoform C in human HepG2 cells assessed as levels of fructose-1-phosphate preincubated for 30 mins followed by substrate addition measured after 3 hrs by LC-MS analysis; type: cell-based
T1 sequence (P50053 whole entry): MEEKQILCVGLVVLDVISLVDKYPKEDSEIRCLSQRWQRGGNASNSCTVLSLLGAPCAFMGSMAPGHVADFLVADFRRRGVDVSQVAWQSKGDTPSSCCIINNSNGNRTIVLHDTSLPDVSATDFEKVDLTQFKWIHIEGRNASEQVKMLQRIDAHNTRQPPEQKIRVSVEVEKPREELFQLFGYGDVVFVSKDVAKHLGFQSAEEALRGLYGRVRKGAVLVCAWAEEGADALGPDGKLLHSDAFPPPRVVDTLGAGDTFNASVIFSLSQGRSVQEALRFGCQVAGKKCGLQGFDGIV

[11] = molecular target: Serine/threonine-protein kinase Chk1 (Homo sapiens, UniProt O14757); experiment: Inhibition of CHK1
Aurora kinase A = Aurora kinase A (Homo sapiens, UniProt O14965); experiment: Inhibition of Aurora A
[12] = Metabolic stability of the compound in human liver microsomes assessed as compound remaining after 10 mins; type: ADME, Microsome; details: read-out: Stability
[13] = molecular target: Protein kinase C theta type (Homo sapiens, UniProt Q04759); experiment: Inhibition of PKCtheta
Sequence of Protein kinase C theta type (Q04759 whole entry): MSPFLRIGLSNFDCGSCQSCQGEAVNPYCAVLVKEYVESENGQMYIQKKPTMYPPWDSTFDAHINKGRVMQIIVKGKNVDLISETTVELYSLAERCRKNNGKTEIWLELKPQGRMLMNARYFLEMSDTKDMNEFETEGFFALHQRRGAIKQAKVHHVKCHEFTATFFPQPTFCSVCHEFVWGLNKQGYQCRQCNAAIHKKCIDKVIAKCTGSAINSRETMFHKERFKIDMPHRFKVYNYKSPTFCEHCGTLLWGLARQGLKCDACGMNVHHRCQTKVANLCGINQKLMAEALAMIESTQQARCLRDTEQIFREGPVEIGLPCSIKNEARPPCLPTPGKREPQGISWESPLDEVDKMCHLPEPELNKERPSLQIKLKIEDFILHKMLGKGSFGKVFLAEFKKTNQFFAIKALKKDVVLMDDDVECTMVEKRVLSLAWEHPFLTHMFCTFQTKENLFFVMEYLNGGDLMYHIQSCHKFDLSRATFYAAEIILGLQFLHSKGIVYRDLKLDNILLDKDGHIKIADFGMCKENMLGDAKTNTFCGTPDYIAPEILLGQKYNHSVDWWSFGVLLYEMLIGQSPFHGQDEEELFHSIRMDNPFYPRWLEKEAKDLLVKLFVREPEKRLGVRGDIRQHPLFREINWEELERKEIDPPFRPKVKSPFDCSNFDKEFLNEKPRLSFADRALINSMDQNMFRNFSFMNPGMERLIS

[14] = molecular target: High affinity nerve growth factor receptor (Homo sapiens, UniProt P04629); experiment: Inhibition of NTRK1
[15] = Metabolic stability of the compound in rat liver microsomes assessed as compound remaining after 10 mins; type: ADME, Microsome; details: read-out: Stability
Ephrin type-B receptor 1 = Ephrin type-B receptor 1 (Homo sapiens, UniProt P54762); experiment: Inhibition of EPHB1
Activin receptor type-1B = Activin receptor type-1B (Homo sapiens, UniProt P36896); experiment: Inhibition of ALK4
[16] = Permeability from basolateral to apical side in human Caco2 cells; type: ADME, cell-based; details: Caco-2, read-out: permeability
[17] = molecular target: Interleukin-1 receptor-associated kinase 4 (Homo sapiens, UniProt Q9NWZ3); experiment: Inhibition of IRAK4
[18] = molecular target: Mitogen-activated protein kinase 13 (Homo sapiens, UniProt O15264); experiment: Inhibition of p38delta
[19] = molecular target: Cyclin-dependent kinase 1/cyclin B1 (Homo sapiens, UniProt P06493); experiment: Inhibition of CDK1/cyclin B; type: protein-complex assay
[20] = Clearance in Sprague-Dawley rat at 2 mg/kg, iv; type: ADME, organism-based; set-up: dose 2 mg/kg, route intravenous; details: in vivo
Cytochrome P450 3A4 = Cytochrome P450 3A4 (Homo sapiens, UniProt P08684); experiment: Inhibition of CYP3A4 in human liver microsomes; type: ADME, Microsome
Sequence of Cytochrome P450 3A4 (P08684 whole entry): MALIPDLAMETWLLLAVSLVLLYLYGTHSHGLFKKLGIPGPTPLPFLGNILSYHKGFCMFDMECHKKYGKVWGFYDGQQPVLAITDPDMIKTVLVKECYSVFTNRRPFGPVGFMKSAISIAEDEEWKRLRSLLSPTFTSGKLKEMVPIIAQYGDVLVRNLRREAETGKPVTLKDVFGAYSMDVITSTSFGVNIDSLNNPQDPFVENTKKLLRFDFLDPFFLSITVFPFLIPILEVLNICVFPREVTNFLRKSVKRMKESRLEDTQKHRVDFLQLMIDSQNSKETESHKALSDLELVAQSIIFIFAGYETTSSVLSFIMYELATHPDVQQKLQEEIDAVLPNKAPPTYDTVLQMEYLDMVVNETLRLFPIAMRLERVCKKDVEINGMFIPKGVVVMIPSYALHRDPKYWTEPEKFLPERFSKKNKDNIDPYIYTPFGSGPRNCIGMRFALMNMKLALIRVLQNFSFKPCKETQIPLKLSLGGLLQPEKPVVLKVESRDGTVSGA

Cytochrome P450 2D6 = Cytochrome P450 2D6 (Homo sapiens, UniProt P10635); experiment: Inhibition of CYP2D6 in human liver microsomes; type: ADME, Microsome
Sequence of Cytochrome P450 2D6 (P10635 whole entry): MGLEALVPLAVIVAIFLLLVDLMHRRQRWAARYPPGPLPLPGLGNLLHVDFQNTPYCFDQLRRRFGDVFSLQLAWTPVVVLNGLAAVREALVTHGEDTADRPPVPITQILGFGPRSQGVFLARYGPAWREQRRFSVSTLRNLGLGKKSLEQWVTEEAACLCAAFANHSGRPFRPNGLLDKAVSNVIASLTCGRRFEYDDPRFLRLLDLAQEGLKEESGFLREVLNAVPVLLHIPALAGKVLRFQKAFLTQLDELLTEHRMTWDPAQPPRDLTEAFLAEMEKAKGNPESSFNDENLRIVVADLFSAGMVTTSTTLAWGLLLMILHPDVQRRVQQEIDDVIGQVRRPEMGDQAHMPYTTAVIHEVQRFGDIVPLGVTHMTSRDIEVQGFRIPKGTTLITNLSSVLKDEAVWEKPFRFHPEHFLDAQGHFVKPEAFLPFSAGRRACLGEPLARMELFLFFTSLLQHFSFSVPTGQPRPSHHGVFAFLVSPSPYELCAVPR

[21] = molecular target: Glycogen synthase kinase-3 beta (Homo sapiens, UniProt P49841); experiment: Inhibition of GSK3beta
[22] = molecular target: Rho-associated protein kinase 1 (Homo sapiens, UniProt Q13464); experiment: Inhibition of ROCK1
[23] = molecular target: Death-associated protein kinase 3 (Homo sapiens, UniProt O43293); experiment: Inhibition of DAPK3
[24] = molecular target: Serine/threonine-protein kinase 26 (Homo sapiens, UniProt Q9P289); experiment: Inhibition of MST4
[25] = Permeability from apical to basolateral side in human Caco2 cells; type: ADME, cell-based; details: Caco-2, read-out: permeability
Cytochrome P450 2C19 = Cytochrome P450 2C19 (Homo sapiens, UniProt P33261); experiment: Inhibition of CYP2C19 in human liver microsomes; type: ADME, Microsome
[26] = Oral bioavailability in Sprague-Dawley rat at 10 mg/kg; type: ADME, organism-based; details: in vivo
[27] = Solubility of the compound in 10% aqueous Solutol; type: physicochemical
[28] = molecular target: Serine/threonine-protein kinase Nek2 (Homo sapiens, UniProt P51955); experiment: Inhibition of NEK2
[29] = molecular target: 5'-AMP-activated protein kinase subunit gamma-1 (Homo sapiens, UniProt P54619); experiment: Inhibition of AMPKG1
Sequence of 5'-AMP-activated protein kinase subunit gamma-1 (P54619 whole entry): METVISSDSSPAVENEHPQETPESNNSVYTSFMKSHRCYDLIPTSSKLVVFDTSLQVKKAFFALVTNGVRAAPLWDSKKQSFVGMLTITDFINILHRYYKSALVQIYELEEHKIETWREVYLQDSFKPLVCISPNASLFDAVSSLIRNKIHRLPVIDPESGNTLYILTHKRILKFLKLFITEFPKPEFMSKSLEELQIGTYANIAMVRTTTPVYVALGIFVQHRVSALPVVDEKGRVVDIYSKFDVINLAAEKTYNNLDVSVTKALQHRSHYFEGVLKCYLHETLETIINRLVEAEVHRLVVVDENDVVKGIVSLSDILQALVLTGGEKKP

[30] = Half life in Sprague-Dawley rat at 2 mg/kg, iv; type: ADME, organism-based; set-up: dose 2 mg/kg, route intravenous; details: in vivo
[31] = molecular target: Serine/threonine-protein kinase Chk2 (Homo sapiens, UniProt O96017); experiment: Inhibition of CHK2
[32] = molecular target: Calcium/calmodulin-dependent protein kinase type II subunit alpha (Homo sapiens, UniProt Q9UQM7); experiment: Inhibition of CAMK2A
Sequence of Calcium/calmodulin-dependent protein kinase type II subunit alpha (Q9UQM7 whole entry): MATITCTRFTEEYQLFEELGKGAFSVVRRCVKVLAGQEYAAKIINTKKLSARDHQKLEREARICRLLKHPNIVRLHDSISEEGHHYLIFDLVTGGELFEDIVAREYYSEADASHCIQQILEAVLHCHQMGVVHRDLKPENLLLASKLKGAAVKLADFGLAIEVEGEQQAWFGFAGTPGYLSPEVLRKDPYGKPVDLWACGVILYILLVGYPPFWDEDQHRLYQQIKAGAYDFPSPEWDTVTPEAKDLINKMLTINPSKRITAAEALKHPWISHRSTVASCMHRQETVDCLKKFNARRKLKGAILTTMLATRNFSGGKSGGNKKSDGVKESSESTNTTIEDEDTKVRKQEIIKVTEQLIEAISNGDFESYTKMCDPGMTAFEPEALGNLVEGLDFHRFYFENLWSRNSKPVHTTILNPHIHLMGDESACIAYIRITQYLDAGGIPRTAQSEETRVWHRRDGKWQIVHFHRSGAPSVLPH

[33] = Cmax in Sprague-Dawley rat at 10 mg/kg, po; type: ADME, organism-based; set-up: dose 10 mg/kg, route oral; details: in vivo
[34] = molecular target: Proto-oncogene tyrosine-protein kinase Src (Homo sapiens, UniProt P12931); experiment: Inhibition of SRC
[35] = molecular target: Tyrosine-protein kinase ABL1 (Homo sapiens, UniProt P00519); experiment: Inhibition of ABL1
[36] = molecular target: 5'-AMP-activated protein kinase catalytic subunit alpha-1 (Homo sapiens, UniProt Q13131); experiment: Inhibition of AMPKA1
[37] = molecular target: Serine/threonine-protein kinase PLK3 (Homo sapiens, UniProt Q9H4B4); experiment: Inhibition of PLK3
Sequence of Serine/threonine-protein kinase PLK3 (Q9H4B4 whole entry): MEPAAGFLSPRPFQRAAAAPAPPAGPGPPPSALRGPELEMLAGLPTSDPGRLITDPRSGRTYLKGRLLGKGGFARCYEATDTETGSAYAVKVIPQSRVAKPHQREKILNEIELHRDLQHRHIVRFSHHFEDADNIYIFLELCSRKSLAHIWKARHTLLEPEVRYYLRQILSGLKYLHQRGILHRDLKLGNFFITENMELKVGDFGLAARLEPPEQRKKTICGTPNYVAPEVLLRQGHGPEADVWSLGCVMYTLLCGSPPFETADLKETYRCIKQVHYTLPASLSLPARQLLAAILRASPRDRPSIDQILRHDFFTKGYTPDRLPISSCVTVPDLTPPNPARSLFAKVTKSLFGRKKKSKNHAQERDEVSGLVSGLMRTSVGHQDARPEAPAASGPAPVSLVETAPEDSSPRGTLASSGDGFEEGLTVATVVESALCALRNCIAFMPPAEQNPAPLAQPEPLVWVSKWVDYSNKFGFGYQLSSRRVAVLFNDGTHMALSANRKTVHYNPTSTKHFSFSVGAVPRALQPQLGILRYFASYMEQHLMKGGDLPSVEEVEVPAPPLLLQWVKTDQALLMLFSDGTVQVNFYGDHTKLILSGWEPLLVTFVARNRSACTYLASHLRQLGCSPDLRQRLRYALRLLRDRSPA

[38] = molecular target: Tyrosine-protein kinase JAK2 (Homo sapiens, UniProt O60674); experiment: Inhibition of JAK2
Sequence of Tyrosine-protein kinase JAK2 (O60674 whole entry): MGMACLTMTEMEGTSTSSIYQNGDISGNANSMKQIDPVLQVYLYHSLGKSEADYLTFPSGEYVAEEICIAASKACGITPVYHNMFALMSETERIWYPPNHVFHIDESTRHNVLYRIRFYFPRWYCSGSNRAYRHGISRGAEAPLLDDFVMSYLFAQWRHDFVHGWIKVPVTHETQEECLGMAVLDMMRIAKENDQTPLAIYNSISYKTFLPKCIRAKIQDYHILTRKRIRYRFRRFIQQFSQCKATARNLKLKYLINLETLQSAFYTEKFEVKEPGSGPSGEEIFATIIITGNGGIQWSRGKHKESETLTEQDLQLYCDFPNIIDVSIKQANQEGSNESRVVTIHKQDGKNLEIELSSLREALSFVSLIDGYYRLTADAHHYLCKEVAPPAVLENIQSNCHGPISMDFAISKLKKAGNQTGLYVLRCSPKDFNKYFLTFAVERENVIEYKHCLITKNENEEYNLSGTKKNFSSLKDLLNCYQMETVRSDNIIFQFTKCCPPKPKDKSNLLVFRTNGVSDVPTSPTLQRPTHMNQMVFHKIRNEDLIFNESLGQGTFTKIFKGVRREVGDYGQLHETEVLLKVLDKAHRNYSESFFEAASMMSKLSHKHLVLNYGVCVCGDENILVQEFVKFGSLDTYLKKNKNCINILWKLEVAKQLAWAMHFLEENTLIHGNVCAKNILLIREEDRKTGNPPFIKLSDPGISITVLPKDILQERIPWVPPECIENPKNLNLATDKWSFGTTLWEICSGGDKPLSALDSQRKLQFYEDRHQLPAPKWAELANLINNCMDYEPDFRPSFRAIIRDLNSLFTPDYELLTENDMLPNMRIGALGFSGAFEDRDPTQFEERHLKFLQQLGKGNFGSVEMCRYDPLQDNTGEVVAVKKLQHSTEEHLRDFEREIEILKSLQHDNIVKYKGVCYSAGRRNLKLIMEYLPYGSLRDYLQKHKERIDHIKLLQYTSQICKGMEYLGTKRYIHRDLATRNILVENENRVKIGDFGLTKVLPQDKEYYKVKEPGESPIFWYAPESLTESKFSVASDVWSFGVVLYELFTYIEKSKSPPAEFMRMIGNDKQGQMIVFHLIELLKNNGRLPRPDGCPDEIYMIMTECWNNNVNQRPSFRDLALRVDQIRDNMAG

SMILES: CSc1ccccc1Nc1nc(N2CCNCC2)nc2c(NCC3CC3)ncnc12
- IC50 [1]: > 40 µM
- Vd [2]: 32 L/kg
- inhibition (INH) (Cytochrome P450 1A2): Not Active
- IC50 [3]: > 40 µM
- IC50 [4]: > 40 µM
- IC50 [5]: > 40 µM
- IC50 [6]: > 40 µM
- inhibition (INH) (Cytochrome P450 2C9): Not Active
- IC50 [7]: > 40 µM
- C0 [8]: 600 nM
- IC50 [9]: > 40 µM
- half-life [10]: 4 h
- IC50 (Ketohexokinase): 0.4 µM
- IC50 [11]: > 40 µM
- IC50 (Aurora kinase A): > 40 µM
- remaining at 10 min [12]: 88%
- IC50 [13]: > 40 µM
- IC50 [14]: > 40 µM
- remaining at 10 min [15]: 72%
- IC50 (Ephrin type-B receptor 1): > 40 µM
- IC50 (Activin receptor type-1B): > 40 µM
- Papp B→A [16]: 1 ×10⁻⁶ cm/s
- IC50 [17]: > 40 µM
- IC50 [18]: > 40 µM
- IC50 [19]: > 40 µM
- clearance [20]: 160 mL/min/kg
- inhibition (INH) (Cytochrome P450 3A4): Not Active
- inhibition (INH) (Cytochrome P450 2D6): Not Active
- IC50 [21]: > 40 µM
- IC50 [22]: > 40 µM
- IC50 [23]: > 40 µM
- IC50 [24]: > 40 µM
- Papp A→B [25]: 0.3 ×10⁻⁶ cm/s
- inhibition (INH) (Cytochrome P450 2C19): Not Active
- bioavailability [26]: 34%
- solubility [27]: 1500 µg/mL (≈ 3.55 mM)
- IC50 [28]: > 40 µM
- IC50 [29]: > 40 µM
- half-life [30]: 2 h
- IC50 [31]: > 40 µM
- IC50 [32]: > 40 µM
- Cmax [33]: 160 nM
- IC50 [34]: > 40 µM
- IC50 [35]: > 40 µM
- IC50 [36]: > 40 µM
- IC50 [37]: > 40 µM
- IC50 [38]: > 40 µM
